# Assay results reported in patent publication US8466186B2, “Compounds” (Boehringer Ingelheim International GmbH, priority 2010, dated 2013).
# Biological target: T1, recombinant human mPGES-1 (Homo sapiens, UniProt O14684)
# T1 construct: made in house; host or cells: Rosetta E. coli (membrane/microsome fraction)
# T1 sequence (O14684 1-152): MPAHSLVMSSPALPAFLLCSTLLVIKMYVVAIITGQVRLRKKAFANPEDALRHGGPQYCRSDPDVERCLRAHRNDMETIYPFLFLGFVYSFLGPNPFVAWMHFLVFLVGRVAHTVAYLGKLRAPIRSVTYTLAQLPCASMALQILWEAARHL
# Test: Assay A: mPGES-1 enzyme assay (HTRF detection of PGE2)
# Format: biochemical
# Conditions: biological assay A; microsomes from E. coli expressing recombinant human mPGES-1; read-out: mPGES-1 inhibitory effect IC50
# Excerpt: The aim of this assay is to determine the affinity of a test compound for the mPGES-1 enzyme.
# • 1. Riendeau, D., R. Aspiotis, D. Ethier, Y. Gareau, E. Grimm, J. Guay, S. Guiral, H. Juteau, J. Mancini, N. Methot, J. Rubin, and R. Friesen, Inhibitors of the inducible microsomal prostaglandin E2 synthase (mPGES-1) derived from MK-886. Bioorg Med Chem Lett, 2005. 15(14): p. 3352-3355. • 2. Cote, B., L. Boulet, C. Brideau, D. Claveau, D. Ethier, R. Frenette, M. Gagnon, A. Giroux, J. Guay, S. Guiral, J. Mancini, E. Martins, F. Masse, N. Methot, D. Riendeau, J. Rubin, D. Xu, H. Yu, Y. Ducharme, and R. Friesen, Substituted phenanthrene imidazoles as potent, selective, and orally active mPGES-1 inhibitors. Bioorg Med Chem Lett, 2007. 17(24): p. 6816-6820. Assay A: mPGES-1 Enzyme Assay List of Reagents Used: • Glutathione (Sigma, G-4251) • Freeze culture in Rosetta E coli expression strain. • LB growth media with Ampillicillin (Amp) final concentration in culture 50 μg/mL • Chloroamphenicol stock 34 mg/mL (chloro) final concentration in culture 34 μg/mL • Sterile growth flasks for 500 mL-1 liter cultures • 0.1 M KP, buffer pH 7.4 • 9.25% HCl • PGH2 (0.25 mM) • Fe (II) Cl2 tetrahydrate, 99% (Sigma, 220229) • 384-well plate with compounds • 96-well plate, polypropylene (Thermo fast 96 skirted VWR) • 384-well plate polypropylene PCR plate (Greiner 785201) • Greiner 384-well plate pp (In vitro cat. no. 781280) • Adhesive sealing film for 96-well plates (Sigma-Aldrich) • Aluminium foil (PCR foil, 310-0030-127-471 from Labora) • PBS (GIBCO 14040) • Prostaglandin E2 Assay (Cisbio, cat. no. 62P2APEC) • Biomek FX robot (Beckman Coulter) • Biomek NX robot (Beckman Coulter) • Multidrop; micro or combi (ThermoLabsystems) • Plate reader: Safire2 (Tecan)
# Microsomes from Rosetta E. coli bacteria expressing recombinant human mPGES-1 can be derived as described below:
# Inoculate 5 mL LB with Amp and Chloro with bacteria from freeze culture. Incubate overnight at 37° C. with 200 rpm. Thereafter, inoculate 500-800 mL LB containing Amp and Chloro with the 5 mL on culture and grow to OD640 of 0.6-0.8. Chill the culture to +4° C. before induction. Induce the culture with IPTG at a final concentration of 400 μM. Express the protein at room temp 18-23° C. with 200 rpm shaking overnight.
# The following steps can be performed on the following day: • 1. Spin down the cells in 250 mL centrifuge flasks for 15 min at 7000 rpm • 2. Dissolve the pellet from 250 mL culture in 12.5 mL homogenization buffer • 3. Disintegrate the cells by sonication, 4×10 seconds at 35% amplitude • 4. Add 2.5 mL MgCl2 (100 mM) and DNase 12.5 μL (0.8 mg/mL) and incubate on ice for 30 min • 5. Spin down the bacteria debris and save the supernatant, 7000 rpm for 15 min • 6. Isolate the protein containing membranes in the supernatant by ultracentrifugation 45000×g for 1 hour. • 7. Discard the supernatant and dissolve the pellet in 20 mM KPi buffer and aliquot the enzyme and store aliquots at −80° C.
# Before each experiment is performed an aliquot of the enzyme is thawed and it can then be dissolved in 0.1 M KP, pH 7.4 buffer containing 2.5 mM GSH. 50 μL of this enzyme solution is subsequently dispensed in a 384-well plate at room temperature. 0.5 μL of the inhibitor dissolved in DMSO is thereafter added to each well and incubated for 25 minutes at room temperature. Subsequently, 2 μL of PGH2 dissolved in an appropriate solvent is added to each well and after one minute at room temperature, the acidified stop solution containing FeCl2 is added. 4 μL of the total volume is transferred to a separate plate and diluted 750-fold in two separate steps before quantification of PGE2.
# In order to quantitate the amount of PGE2 that has been formed, a homogenous time resolved fluorescent (HTRF) detection of PGE2 can be performed by the use of a commercially available kit from CisBio essentially according to the manufacturer's protocol. […]
row,Compound,IC50 [nM]
1,CN1CCN(c2cc3[nH]c(Nc4cc(CNC(=O)C5(C(F)(F)F)CC5)ccc4Cl)nc3cc2Cl)CC1 [Example 129],634
2,CC(=O)N1CCN(c2cc3c(cc2Cl)nc(Nc2cc(CNC(=O)C4(C(F)(F)F)CC4)ccc2Cl)n3C)CC1 [Example 73],61
3,Cn1c(Nc2cc(CNC(=O)C3(C(F)(F)F)CC3)ccc2Cl)nc2cc(F)c(N3CCC(C)(C)CC3)c(F)c21 [Example 85],20
4,Cn1c(Nc2cc(CNC(=O)c3c(F)cccc3C(F)(F)F)ccc2Cl)nc2cc(Cl)c(N3CCCC(C(F)(F)F)C3)cc21 (stereo not drawn) [Example 69],9
5,O=S(=O)(NCc1ccc(Cl)c(Nc2nc3cc(N4CCCC4)ccc3[nH]2)c1)c1ccco1 [Example 29],105
6,COC[C@@H]1CCCN1c1cc2c(cc1Cl)nc(Nc1cc(CNC(=O)C3(C(F)(F)F)CC3)ccc1Cl)n2C [Example 126],6.7
7,Cn1c(Nc2cc(CNC(=O)C3(C(F)(F)F)CC3)c(F)cc2Cl)nc2cc(Cl)c(N3CCC(C)(C)CC3)cc21 [Example 115],9.2
8,CC1(C(=O)NCc2ccc(Cl)c(Nc3nc4cc(N5CCCC5)ccc4[nH]3)c2)CCCC1 [Example 28],24
9,"CN(C)CC1CCN(c2cc3[nH]c(Nc4cc(CNC(=O)C(C)(C)C)ccc4Cl)nc3cc2Cl)C1 (stereo not drawn) [Example 3, N-{4-Chloro-3-[5-chloro-6-(3-dimethylaminomethyl-pyrrolidin-1-yl)-1H-benzimidazol-2-ylamino]-benzyl}-2,2-dimethyl-propionamide]",715
10,COC1CCN(c2cc3c(cc2Cl)nc(Nc2cc(CNC(=O)C4(C(F)(F)F)CC4)ccc2Cl)n3C)CC1 [Example 77],10
11,"Cn1c(Nc2cc(CNC(=O)C3(C(F)(F)F)CC3)ccc2Cl)nc2cc(F)c(N3CCC(C(F)(F)F)CC3)cc21 [Example 86, N-{4-Chloro-3-[5-fluoro-1-methyl-6-(4-trifluoromethyl-piperidin-1-yl)-1H-benzimidazol-2-ylamino]-benzyl}-1-trifluoromethyl-cyclopropanamide]",7.1
12,O=C(NCc1ccc(Cl)c(Nc2nc3cc(N4CCCC4)ccc3[nH]2)c1)c1ccc(OCc2ccccc2)cc1 [Example 21],30
13,O=C(NCc1ccc(Cl)c(Nc2nc3cc(Cl)c(N4CCCC(C(F)(F)F)C4)cc3[nH]2)c1)C1(C(F)(F)F)CC1 (stereo not drawn) [Example 72],11
14,O=C(NCc1ccc(Cl)c(Nc2nc3cc(Cl)c(N4CCOCC4)cc3[nH]2)c1)C1(C(F)(F)F)CC1 [Example 128],172
15,"O=S(=O)(NCc1ccc(Cl)c(Nc2nc3ccc(N4CCCC4)cc3[nH]2)c1)C1CC1 [Example 30, N-{4-Chloro-3-[5-(pyrrolidin-1-yl)-1H-benzimidazol-2-ylamino]-benzyl}cyclopropylsulfonamide]",300
16,CC1(C(=O)NCc2ccc(Cl)c(Nc3nc4ccc(N5CCOCC5)cc4[nH]3)c2)CCCCC1 [Example 119],> 100
17,CC1CCCCC1C(=O)NCc1ccc(Cl)c(Nc2nc3cc(N4CCCC4)ccc3[nH]2)c1 (stereo not drawn) [Example 19],52
18,Cn1c(Nc2cc(CNC(=O)C3(C(F)(F)F)CC3)ccc2Cl)nc2cc(Cl)c(N3CCOCC3)cc21 [Example 10],31
19,"CC(C)(C)C(=O)NCc1ccc(Cl)c(Nc2nc3cc(N4CCC(F)(F)C4)c(Cl)cc3[nH]2)c1 [Example 2, N-{4-Chloro-3-[6-chloro-5-(3,3-difluoropyrrolidin-1-yl)-1H-benzo[d]imidazol-2-ylamino]benzyl}-2,2-dimethyl-propionamide]",19
20,"CN(C)CC1CCCN1c1cc2[nH]c(Nc3cc(CNC(=O)C(C)(C)C)ccc3Cl)nc2cc1Cl (stereo not drawn) [Example 7, N-{4-Chloro-3-[5-chloro-6-(2-dimethylaminomethyl-pyrrolidin-1-yl)-1H-benzimidazol-2-ylamino]-benzyl}-2,2-dimethyl-propionamide]",74
21,CN1CCN(c2cc3[nH]c(Nc4cc(CNC(=O)C5(C)CCCCC5)ccc4Cl)nc3cc2Cl)CC1 [Example 120],266

# Now those with a lower IC50, led by results:
row,IC50 [nM],Compound
1,5.9,"Cn1c(Nc2cc(CNC(=O)C3(C(F)(F)F)CC3)cc(F)c2Cl)nc2cc(Cl)c(N3CCC(C(F)(F)F)CC3)cc21 [Example 116, N-{4-Chloro-5-fluoro-3-[5-chloro-1-methyl-6-(4-trifluoromethyl-piperidin-1-yl)-1H-benzimidazol-2-ylamino]-benzyl}-1-trifluoromethyl-cyclopropanamide]"
2,5.8,Cn1c(Nc2cc(CNC(=O)C(C)(N)C(F)(F)F)ccc2C(F)(F)F)nc2cc(Cl)c(N3CCC(C(F)(F)F)CC3)cc21 (stereo not drawn) [Example 108]
3,5.7,Cn1c(Nc2cc(CNC(=O)C(C)(F)F)ccc2C(F)(F)F)nc2cc(Cl)c(N3CCC(C(F)(F)F)CC3)cc21 [Example 106]
4,5.3,O=C(NCc1ccc(Cl)c(Nc2nc3cc(Cl)c(N4CCC(C(F)(F)F)CC4)cc3n2CC2CC2)c1)C1(C(F)(F)F)CC1 [Example 88]
5,4.8,"Cn1c(Nc2cc(CNC(=O)C3(C(F)(F)F)CC3)c(F)cc2Cl)nc2cc(Cl)c(N3CCC(C(F)(F)F)CC3)cc21 [Example 114, N-{4-Chloro-2-fluoro-5-[5-chloro-1-methyl-6-(4-trifluoromethyl-piperidin-1-yl)-1H-benzimidazol-2-ylamino]-benzyl}-1-trifluoromethyl-cyclopropanamide]"
6,4,Cn1c(Nc2cc(CNC(=O)c3c(Cl)cccc3Cl)ccc2Cl)nc2cc(Cl)c(N3CCCC(C(F)(F)F)C3)cc21 (stereo not drawn) [Example 68]
7,3.5,"Cn1c(Nc2cc(CNC(=O)C(C)(F)F)ccc2Cl)nc2cc(Cl)c(N3CCC(C(F)(F)F)CC3)cc21 [Example 94, N-{4-Chloro-3-[5-chloro-1-methyl-6-(4-trifluoromethyl-piperidin-1-yl)-1H-benzimidazol-2-ylamino]-benzyl}-2,2-difluoro-propionamide]"
8,2.8,"Cn1c(Nc2cc(CNC(=O)C3(C(F)(F)F)CC3)ccc2C(F)(F)F)nc2cc(Cl)c(N3CCC(C(F)(F)F)CC3)cc21 [Example 101, N-{4-Trifluoromethyl-3-[5-chloro-1-methyl-6-(4-trifluoromethyl-piperidin-1-yl)-1H-benzimidazol-2-ylamino]-benzyl}-1-trifluoromethyl-cyclopropanamide]"
9,2.6,CC(C(=O)NCc1ccc(Cl)c(Nc2nc3cc(Cl)c(N4CCCC(C(F)(F)F)C4)cc3n2C)c1)C(F)(F)F (stereo not drawn) [Example 13]
10,2.4,Cn1c(Nc2cc(CNC(=O)C(C)(C)C)ccc2C(F)(F)F)nc2cc(Cl)c(N3CCC(C(F)(F)F)CC3)cc21 [Example 104]
11,2.2,Cn1c(Nc2cc(CNC(=O)C3(C(F)(F)F)CC3)ccc2Cl)nc2cc(Cl)c(N3CCN(c4ccccc4)CC3)cc21 [Example 90]
12,1.7,Cn1c(Nc2cc(CNC(=O)C3(C(F)(F)F)CC3)ccc2Cl)nc2cc(Cl)c(N3CCC(C)(C)CC3)cc21 [Example 78]
